{"source": "patent US8680076B2", "about": "“Methods of treatment, improvement and prevention using haloaryl substituted aminopurines” (Signal Pharmaceuticals, LLC, priority 2010, dated 2014)", "key": {"[1]": {"tested_on": "DBA/2J mice, bleomycin-induced skin fibrosis", "assay": "Bleomycin-induced dermal fibrosis mouse model (preventive treatment)", "assay_type": "in vivo", "conditions": "for reduction of collagen content in lesional skin (hydroxyproline assay): compared to bleomycin-treated animals", "experimental": "The selective JNK inhibitor Compound JNKi-1 was tested in a bleomycin-induced dermal fibrosis mouse model, which is considered to represent the early and inflammatory stages of systemic sclerosis (Akhmetshina A, Venalis P, Dees C, Busch N, Zwerina J, Schett G, Distler O, Distler J H, Treatment with imatinib prevents fibrosis in different preclinical models of systemic sclerosis and induces regression of established fibrosis, Arthritis Rheum. 2009; 60(1):219-24). […] In animal models it will similarly induce injury and fibrosis at the site of delivery.\nMale and female DBA/2J mice were used. Mice were fed a standard diet with water ad libitum. The room temperature was kept constant at 22° C. with a humidity of 60%.\nCompound JNKi-1 was dissolved in 0.5% carboxymethylcellulose (CMC)/0.25% Tween 80 in water. Bleomycin was dissolved in 0.9% sodium chloride (NaCl) at a concentration of 0.5 mg/mL in a total volume of 100 μL. The positive control compound Imatinib mesylate was dissolved in 0.9% NaCl at a concentration of 50 mg/kg/day in a total volume of 100 μL.\nTwo different dose levels of the JNK-inhibitor Compound JNKi-1 (50 mg/kg and 150 mg/kg, administered twice daily) were used to analyze the anti-fibrotic activity in a mouse model of bleomycin-induced skin fibrosis. […] DBA/2J mice (n=5/sex/group) were assigned to one of five treatment groups: • Control group: 0.5% CMC/0.25% Tween 80 in water orally (PO) twice daily (BID) and subcutaneous injections of 100 μL 0.9% NaCl. • Untreated bleomycin group: intradermal injection of bleomycin and 0.5% CMC/0.25% Tween 80 in water orally BID. • 50 mg/kg Compound JNKi-1: intradermal injection of bleomycin and Compound JNKi-1 orally BID. • 150 mg/kg Compound JNKi-1: intradermal injection of bleomycin and Compound JNKi-1 orally BID. • Positive control group: intradermal injection of bleomycin and imatinib 50 mg/kg/day administered intraperitoneally (IP).\nLocalized dermal fibrosis was induced by injection of bleomycin every other day for 3 weeks in defined areas of the upper back. Compound JNKi-1 or imatinib was administrated starting from the first dose of bleomycin.\nThe dermal thickness was determined by staining with hematoxylin and eosin (H & E). The activated fibroblasts (myofibroblasts) at the fibrotic lesions were quantified by immunohistochemistry (IHC) for alpha smooth muscle actin (α-SMA). Collagen concentration in lesional skin was analyzed by hydroxyproline assay. Data are expressed as mean±standard error of the mean (SEM). SPSS17.0 software and the Mann-Whitney-U-test were used for statistical analyses. A p-value of less than 0.05 was considered statistically significant."}, "[2]": {"tested_on": "phospho-c-Jun (JNK) in EpiDermFT reconstituted human skin equivalent", "assay": "UVB-stimulated JNK activation in EpiDermFT skin model (Western blot)", "assay_type": "cell-based", "experimental": "Two in vitro systems, nHEK and the EpiDermFT™ skin model, were used in this study. The nHEK cells and EpiDermFT™ samples were pretreated with JNKi-1 at concentrations of 0.1, 3, and 10 μM prior to 60 mJ/cm^2 and 135 mJ/cm^2 UVB irradiation, respectively. After UV stimulation, the activities of JNK were measured as levels of phospho-c-Jun via immunoblotting of cell lysates using an anti-phospho-c-Jun S63 antibody. Phospho-Stat3 was also evaluated as a marker of JNK activation.\nSamples were cultured in 2 mL of serum-free maintenance media (EFT-200-MM) for 72 hr. After 72 hr, the media was replaced with 2 mL of fresh media containing 0, 0.1, 3, and 10 μM of JNKi-1, respectively). Samples were allowed to soak at 37° C., 5% CO2 for 6 hr, then removed from the media and placed into 2 mL of PBS and irradiated with 135 mJ/cm^2 of UVB. Controls were sham irradiated. Samples were placed back into 2 mL of media containing JNKi-1. Samples were harvested at 30 minutes and 3 hr post UV treatment. Each sample was cut in half; one half was snap frozen in liquid nitrogen, homogenized in lysis buffer, and lysates stored at −80° C. The other half was placed in 10% neutral buffer formalin for 3 hr and transferred to 100% ethanol for processing\ncells were pre-incubated with either dimethyl sulfoxide (DMSO) (FIG. 31, lanes 1, 2, and 12 to 15) or JNKi-1 at the indicated concentration (lanes 3 to 11) for 1 hr and then irradiated without (Control, lanes 1 and 2) or with UVB at 60 mJ/cm^2 (lanes 3 to 15). Cells were lysed 30 minutes after UV irradiation and cell lysates were subjected to sodium dodecyl sulfate polyacrylamide gel electrophoresis (SDS-PAGE) before Western blotting with anti-phospho-c-Jun antibody. […]\nWestern analysis: For Western blot analysis, 20 to 25 μg of total protein were applied to SDS-PAGE gels followed by electrophoresis and blotting. […] The intensity of each band was quantified by the Odyssey 2.1 software and exported into Excel for further analysis. […]"}}, "note": "“Also recorded” adds a separate entry of the source."}
{"compound": "O[C@H]1CC[C@H](Nc2ncc3nc(Nc4c(F)cc(F)cc4F)n([C@H]4CCOC4)c3n2)CC1", "note": "[JNKi-1, 4-((9-((3S)-tetrahydro-3-furanyl)-8-((2,4,6-trifluorophenyl)amino)-9H-purin-2-yl)amino)-trans-cyclohexanol]", "values": [{"measurement": "decrease of dermal thickness", "setting": "[1]; 50 mg/kg orally BID, 3 weeks bleomycin, mean±SEM", "value": "24%±5%"}, {"measurement": "reduction of collagen content in lesional skin (hydroxyproline assay)", "setting": "[1]; 50 mg/kg orally BID", "value": "29%±11%"}, {"measurement": "reduction of number of myofibroblasts (α-SMA IHC)", "setting": "[1]; 50 mg/kg orally BID, mean±SEM", "value": "80%±10%"}, {"measurement": "reduction of collagen content in lesional skin (hydroxyproline assay)", "setting": "[1]; 150 mg/kg orally BID", "value": "47%±9%"}, {"measurement": "reduction of number of myofibroblasts (α-SMA IHC)", "setting": "[1]; 150 mg/kg orally BID, mean±SEM", "value": "101%±9%"}, {"measurement": "collagen content in lesional skin (in words)", "setting": "[1]; 50 and 150 mg/kg orally BID", "value": "reduced dose-dependently"}, {"measurement": "dermal thickness / development of fibrosis (in words)", "setting": "[1]; 50 and 150 mg/kg orally BID", "value": "decreased dose-dependently; also recorded: reduced dose dependently; also recorded: significantly ameliorated; also recorded: dose-dependently inhibited dermal thickness"}, {"measurement": "myofibroblasts in lesional skin (in words)", "setting": "[1]; 50 and 150 mg/kg orally BID", "value": "significantly decreased; also recorded: completely prevented"}, {"measurement": "UVB-induced JNK activation (phospho-c-Jun level), in words", "setting": "[2]; EpiDermFT, 0.1, 3, 10 μM", "value": "strongly Inhibits; also recorded: significantly blocks"}, {"measurement": "inhibition of phospho-Stat3", "setting": "[2]; EpiDermFT, 30 minutes post UV, data not shown", "value": "minimal"}, {"measurement": "IC50", "setting": "[2]; Homo sapiens, light or radiation study, 0.5 h, EpiDermFT, UVB 135 mJ/cm^2, lysed 30 minutes after UV, read-out: IC50 for p-cJun", "value": "100 to 3000", "unit": "nM"}]}
